Experimental data as given in PMC10363480 (Plant Communications, 2023).

Key:
Format in all cases: cell-based
[1] = system: mitochondria or chloroplast of Chlamydomonas reinhardtii; test: Automated image segmentation / quantification of Venus signal (pyrenoid/chlorophyll, mitochondria/cell); details: unmodified HA-RAMPs; Supplemental Figures 2E, 2F, 5A, 9A
Text: A custom ImageJ Macro was written to enable automated image segmentation of epifluorescence micrographs in Fiji. In brief, in a given micrograph, fluorescence intensities were normalized, and individual cells were detected using marker-controlled watershed from the MorphoLibJ library ([Legland et al., 2016]). For each cell, auto-thresholding the chlorophyll channel using the Huang method was used to generate a chlorophyll mask. Separately, the chlorophyll channel was subjected to a series of morphological filters and Gaussian blurring followed by auto-thresholding to finally detect round holes between 0.1 and 5 μm within the ensuing binary image to be saved as a pyrenoid mask. In MitoTracker images, the MitoTracker channel was subjected to morphological filtering followed by auto-thresholding with Otsu to generate a mitochondrial mask. Venus channel intensities were recorded for each compartment. For each cell, rotated images containing binary masks as extra channels were saved. Data were compiled, analyzed, and plotted in R v.3.6.1 (https://www.r-project.org/) using RStudio 2022.07.2+576 (https://www.rstudio.com/).
Automated Image Analysis corroborates targeting
To assess subcellular Venus localisation independently of our manual targeting assignment, 2202 3-channel images containing Venus, chlorophyll and brightfield channels, and 557 4-channel images containing an additional MitoTracker channel, were subjected to automated, quantitative […]
image analysis (Fig. S2).
In the absence of Venus, low chlorophyll autofluorescence is visible in the Venus channel; in the absence of a presequence, Venus accumulates in the cytoplasm, targeting neither to the mitochondria nor to the chloroplast. When equipped with the chimeric B15Kc presequence, Venus […]
previously using confocal microscopy and biochemistry on isolated organelles (Garrido et al., When targeted to the chloroplast, Venus not only colocalizes with chlorophyll but also accumulates within the pyrenoid. The pyrenoid can be detected as a region of lower chlorophyll fluorescence at the base of the cup-shaped chloroplast, as visualized in Fig. S2B where the pyrenoid is labelled fluorescently using an RBCS-Venus fusion protein. Given that chlorophyll autofluorescence renders colocalization of Venus channel signal with the chlorophyll channel potentially misleading in constructs with low Venus accumulation, we chose to focus on evaluating Venus signal within the pyrenoid for automated image segmentation (Fig. S2C inset). Rather than comparing pyrenoidal Venus to the entire cell, we opted for a comparison with Venus in the rest of the chloroplast excluding the pyrenoid (the chlorophyll region), since strong Venus channel signal from within the pyrenoid should generate high values for a pyrenoid/chlorophyll ratio when Venus is in the chloroplast and low values when Venus is elsewhere. This approach was able to separate chloroplast-targeting constructs very effectively from constructs where Venus localized elsewhere in the cell (Fig. S2C). Only a small region of overlap between the two categories remains (highlighted in blue). Among constructs targeting elsewhere, constructs found in this overlap region typically show low Venus accumulation, e.g. the no-Venus control falls also falls in this region (black diamond). […]

[2] = system: mitochondria or chloroplast of Chlamydomonas reinhardtii; test: Subcellular localization of Venus reporter by epifluorescence microscopy (manual targeting assignment); details: for mitochondrial targeting upon addition of mTP-C (P^m): C-terminal element of CAG2-mTP added to the named peptide, Figure 2 rows C and D
Outline: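 Targeting peptide variants fused to Venus reporter, transformed into Chlamydomonas wild-type T222+ (CC-5101); three independent transformant lines per construct. Localization assigned manually from epifluorescence images using chlorophyll autofluorescence for chloroplast and 0.1 μM MitoTracker Red CMXRos (30 min) for mitochondria. Automated segmentation used for validation.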

[3] = system: Escherichia coli strain BW25113; test: Minimum inhibitory concentration / antimicrobial activity growth assay; details: growth assay with dilutions of the AMP, Escherichia coli strain BW25113, Figure 3D
[4] = Figure 2, bare name = K and R versions
[5] = targeting of the Venus reporter fused to the peptide, expressed in Chlamydomonas reinhardtii, manual assignment from epifluorescence microscopy, full or partial
[6] = manual targeting assignment of the Venus reporter construct in Chlamydomonas: Neither / Mitochondria / Chloroplast / Dual, (partial) = partial targeting
[7] = peptide-Venus reporter construct expressed in Chlamydomonas reinhardtii, manual targeting assignment (Neither / Mitochondria / Chloroplast / Dual; partial = partial targeting)

Substance: ranatuerin-2G [R2GK, reference compound]
- automated image quantification values [1]: high image quantification values
- mitochondrial targeting upon addition of mTP-C (P^m) ([2]; bare name = K and R versions): enabled partial mitochondrial targeting
- chloroplast targeting when combining cTP-N with cTP-C (^cP^c) [2, 4]: fail to target the chloroplast

Substance: FLPLLAGLAANFLPKIFCKITRKC [B1E, brevinin-1E, HA-RAMP antimicrobial peptide, reference compound]
- minimum inhibitory concentration after replacing all Ks with Rs, compared with the natively K-rich sequence [3]: increased
- mitochondrial targeting upon sole addition of cTP-N (^cP) ([2]; 15 N-terminal residues of RCA1-cTP added, no C-terminal element, Figure 2): enabled mitochondrial targeting
- targeting when combining cTP-N with mTP-C (^cP^m) [2, 4]: dual targeting

Substance: VNYGNGVSCSKTKCSVNWGIITHQAFRVTSGVASG [B15, bacillocin 1580, HA-RAMP antimicrobial peptide, reference compound]
- chloroplast targeting upon addition of cTP-C (P^c) ([2]; C-terminal element of RCA1-cTP added to the named peptide, Figure 2 rows E and F, bare name = K and R versions): enabled chloroplast targeting
- targeting when combining cTP-N with mTP-C (^cP^m) [2, 4]: chloroplast targeting

Substance: MQVTMKSSAVSGQRVMWLSKTAKKLENSAKKRISEGIAIAIKGGSR [c.CP3.K]
- Localisation [2, 5]: Neither

Substance: MRYYGNGVSCNRRGCSVDWGRAIGIIGNNAAANLTTGGRAGWRGSVRRAQLQVVASSRKQMGRWRSIDAGVDASDDQ [EHF.R.c]
- Localisation [2, 6]: Chloroplast

Substance: MQVTMKSSAVSGQRVMGKIPVKAIKKAGAAIGKGLRAINIASTAHDVYSFFKPKHKKKSVRRAQLQVVASSRKQMGRWRSIDAGVDASDDQ [c.SIM.K.c]
- Localisation [2, 5]: Chloroplast

Substance: MGKIPVKAIKKAGAAIGKGLRAINIASTAHDVYSFFKPKHKKKSVRRAQLQVVASSRKQMGRWRSIDAGVDASDDQ [SIM.K.c]
- Localisation [2, 5]: Neither

Substance: MQVTMKSSAVSGQRVMKYYGNGVHCTRSGCSVNWGEAFSAGVHRLANGGNGFW [c.LCA.R]
- Localisation [2, 7]: Neither

Substance: MGRIPVRAIRRAGAAIGRGLRAINIASTAHDVYSFFRPRHRRRSVRRAQLQVVASSRKQMGRWRSIDAGVDASDDQ [SIM.R.c]
- Localisation [2, 6]: Neither

Substance: MQVTMKSSAVSGQRVMGLLLDTLKGAAKDIAGIALEKLKCKITGCKPSVRRAQLQVVASSRKQMGRWRSIDAGVDASDDQ [c.R2G.K.c]
- Localisation [2, 5]: Mitochondria (partial)

Substance: MQVTMKSSAVSGQRVMGLLLDTLKGAAKDIAGIALEKLKCKITGCKP [c.R2G.K]
- Localisation [2, 5]: Mitochondria (partial)

Substance: MALWMTLLRRVLRAAARAALNAVLVGANALTQTAESFRGVSSQFFDAPNGPSVKQVLIEDEW [DS4.R.m]
- Localisation [2, 5]: Neither

Substance: MRYYGNGVSCNRRGCSVDWGRAIGIIGNNAAANLTTGGRAGWRG [EHF.R]
- Localisation [2, 6]: Neither

Substance: MWLSRTARRLENSARRRISEGIAIAIRGGSR [CP3.R]
- Localisation [2, 7]: Mitochondria (partial)

Substance: MQVTMKSSAVSGQRVLTQTAESFRGVSSQFFDAPNGPSVKQVLIEDEW [c.-.m]
- Localisation [2, 6]: Neither

Substance: MQVTMKSSAVSGQRVMVNYGNGVSCSRTRCSVNWGIITHQAFRVTSGVASGSVRRAQLQVVASSRKQMGRWRSIDAGVDASDDQ [c.B15.R.c]
- Localisation [2, 7]: Chloroplast

Substance: MWLSKTAKKLENSAKKRISEGIAIAIKGGSRLTQTAESFRGVSSQFFDAPNGPSVKQVLIEDEW [CP3.K.m]
- Localisation [2, 7]: Neither

Substance: cecropin-P3 [CP3K, reference compound]
- automated image quantification values [1]: high image quantification values
- chloroplast targeting when combining cTP-N with cTP-C (^cP^c) [2, 4]: fail to target the chloroplast
- targeting when combining cTP-N with mTP-C (^cP^m) [2, 4]: chloroplast targeting

Substance: MQVTMKSSAVSGQRVMVNYGNGVSCSKTKCSVNWGIITHQAFRVTSGVASGSVRRAQLQVVASSRKQMGRWRSIDAGVDASDDQ [c.B15.K.c]
- Localisation [2, 7]: Chloroplast

Substance: MGWIRDFGKRIERVGQHTRDATIQTIAVAQQAANVAATLKGLTQTAESFRGVSSQFFDAPNGPSVKQVLIEDEW [S1D.K.m]
- Localisation [2, 5]: Neither

Substance: MNIVVYWNFTLWHMDINARNAGCDGEGSLTQTAESFRGVSSQFFDAPNGPSVKQVLIEDEW [RP1.K.m]
- Localisation [2, 5]: Neither

Substance: MQVTMKSSAVSGQRVMGLLLDTLRGAARDIAGIALERLRCRITGCRP [c.R2G.R]
- Localisation [2, 6]: Mitochondria

Substance: MGIGKFLHSAKKFGKAFVGEIMNS [MII.K]
- Localisation [2, 7]: Mitochondria (partial)

Substance: GIGKFLHSAKKFGKAFVGEIMNS [MII, magainin 2, HA-RAMP antimicrobial peptide, reference compound]
- minimum inhibitory concentration after replacing all Ks with Rs, compared with the natively K-rich sequence [3]: increased
- mitochondrial targeting upon addition of mTP-C (P^m) ([2]; bare name = K and R versions): continued targeting
- mitochondrial localization upon addition of cTP-C (P^c) ([2]; C-terminal element of RCA1-cTP added, Figure 2 rows E and F): compatible with mitochondrial localization
- organelle targeting (Venus reporter localization) by the construct as labelled ([2]; peptide inserted upstream of Venus, stable Chlamydomonas lines, epifluorescence, MitoTracker / chlorophyll / pyrenoid co-localization, three independent insertion lines): only partial

Substance: MQVTMKSSAVSGQRVSFLTTFRDLAIRAARSAGQSVLSTLSCRLSNTCLTQTAESFRGVSSQFFDAPNGPSVKQVLIEDEW [c.B2I.R.m]
- Localisation [2, 6]: Dual

Substance: MQVTMKSSAVSGQRVFLPLLAGLAANFLPKIFCKITRKCLTQTAESFRGVSSQFFDAPNGPSVKQVLIEDEW [c.B1E.K.m]
- Localisation [2, 5]: Dual

Substance: MKYYGNGVSCNKKGCSVDWGKAIGIIGNNAAANLTTGGKAGWKGLTQTAESFRGVSSQFFDAPNGPSVKQVLIEDEW [EHF.K.m]
- Localisation [2, 5]: Neither

Substance: MQVTMKSSAVSGQRVSFLTTFRDLAIRAARSAGQSVLSTLSCRLSNTCSVRRAQLQVVASSRKQMGRWRSIDAGVDASDDQ [c.B2I.R.c]
- Localisation [2, 6]: Chloroplast

Substance: MLKRVGQSLVPFARAG [MH.R]
- Localisation [2, 6]: Mitochondria (partial)

Substance: MQVTMKSSAVSGQRVALWMTLLKKVLKAAAKAALNAVLVGANA [c.DS4.K]
- Localisation [2, 7]: Neither

Substance: MALWMTLLKKVLKAAAKAALNAVLVGANA [DS4.K]
- Localisation [2, 7]: Neither

Substance: MQVTMKSSAVSGQRVALWRTMLRRLGTMALHAGRAAFGAAADTISQSVRRAQLQVVASSRKQMGRWRSIDAGVDASDDQ [c.DDM.R.c]
- Localisation [2, 6]: Chloroplast

Substance: MQVTMKSSAVSGQRVRYYGNGVSCNRRGCSVDWGRAIGIIGNNAAANLTTGGRAGWRGSVRRAQLQVVASSRKQMGRWRSIDAGVDASDDQ [c.EHF.R.c]
- Localisation [2, 6]: Chloroplast

Substance: MQVTMKSSAVSGQRVALWMTLLRRVLRAAARAALNAVLVGANASVRRAQLQVVASSRKQMGRWRSIDAGVDASDDQ [c.DS4.R.c]
- Localisation [2, 5]: Neither

Substance: MQVTMKSSAVSGQRVMKYYGNGVSCNKKGCSVDWGKAIGIIGNNAAANLTTGGKAGWKGSVRRAQLQVVASSRKQMGRWRSIDAGVDASDDQ [c.EHF.K.c]
- Localisation [2, 5]: Chloroplast

Substance: MALWRTMLRRLGTMALHAGRAAFGAAADTISQ [DDM.R]
- Localisation [2, 6]: Neither

Substance: MDEVNNDNCRIKFKGDISSESDKMNINYLTQTAESFRGVSSQFFDAPNGPSVKQVLIEDEW [RP2.K.m]
- Localisation [2, 5]: Neither

Substance: MFLPLLAGLAANFLPKIFCKITRKCSVRRAQLQVVASSRKQMGRWRSIDAGVDASDDQ [B1E.K.c]
- Localisation [2, 7]: Neither

Substance: MQVTMKSSAVSGQRVMALWKTMLKKLGTMALHAGKAAFGAAADTISQ [c.DDM.K]
- Localisation [2, 5]: Neither
